Experimental data published in patent publication US9815842B2, “Pyrazolo pyrimidine derivatives and their use as MALT1 inhibitors” (Novartis AG, priority 2014, dated 2017).
pIC50: −log10 of the molar value.

Tests used:
[1] = target: cIAP2-MALT1 fusion protein (Homo sapiens, UniProt Q9UDY8); assay: cell-based
Method: For the measurement of compound inhibition, 0.25 μl of test compound were mixed with 12.5 μl of enzyme in wells of the 384-well plates, and incubated for 60 minutes at room temperature (22° C.). After that, 12.5 μl of substrate was added, and the enzymatic reaction was allowed to proceed for 60 minutes at room temperature (22° C.). […] The DMSO content was between 0.9 and 1% (v/v). […] The IC50 value was calculated from the plot of percentage inhibition versus inhibitor concentration using non-linear regression analysis software (Origin, OriginLab Corporation, USA). The data were fitted using a 4 Parameter Logistic Model, characterized by the following equation: y=A2+(A1−A2)/(1+(x/IC50)^p) where y is the %-inhibition at the inhibitor concentration, x. A1 is the lowest inhibition value, and A2 the maximum inhibition value.

[2] = target: C-domain of MALT1 (amino acids 329-824) (Homo sapiens (Human), UniProt Q9UDY8); assay: MALT1 biochemical assay (fluorescence lifetime enzyme activity assay); details: 60 min pre-incubation, 2.5 nM enzyme, 1 μM peptide substrate
Sequence of C-domain of MALT1 (amino acids 329-824) (Q9UDY8 329-824): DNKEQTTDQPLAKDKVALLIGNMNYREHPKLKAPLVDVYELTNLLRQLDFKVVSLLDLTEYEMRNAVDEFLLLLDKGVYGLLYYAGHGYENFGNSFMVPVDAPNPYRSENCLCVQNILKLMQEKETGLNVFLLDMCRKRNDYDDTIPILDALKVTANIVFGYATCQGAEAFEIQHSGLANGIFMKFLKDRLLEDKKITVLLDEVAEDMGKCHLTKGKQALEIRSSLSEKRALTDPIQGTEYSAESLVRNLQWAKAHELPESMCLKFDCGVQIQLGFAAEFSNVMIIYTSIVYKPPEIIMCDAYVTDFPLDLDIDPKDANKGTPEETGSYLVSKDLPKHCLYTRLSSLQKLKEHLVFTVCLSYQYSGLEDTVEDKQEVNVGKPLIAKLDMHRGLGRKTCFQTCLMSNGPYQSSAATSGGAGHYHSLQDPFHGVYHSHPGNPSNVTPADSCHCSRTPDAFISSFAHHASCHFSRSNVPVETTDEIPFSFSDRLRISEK

Human IL2 promoter = Human IL2 promoter reporter gene assay (RGA) in Jurkat cells; format: cell-based; details: Jurkat clone K22 290_H23, anti-CD28 mAb + PMA stimulation 5.5 h
Method in brief: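 Transfected Jurkat clone K22 290_H23 cells were pre-incubated with compounds 30 min at 37 °C, then stimulated 5.5 h with anti-CD28 mAb (15E8, 3 μg/ml) plus PMA (1 μg/ml). IL2-promoter reporter activity was read as BriteLitePlus bioluminescence.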

Sequence of cIAP2-MALT1 fusion protein (Q9UDY8 2-824 limits assumed): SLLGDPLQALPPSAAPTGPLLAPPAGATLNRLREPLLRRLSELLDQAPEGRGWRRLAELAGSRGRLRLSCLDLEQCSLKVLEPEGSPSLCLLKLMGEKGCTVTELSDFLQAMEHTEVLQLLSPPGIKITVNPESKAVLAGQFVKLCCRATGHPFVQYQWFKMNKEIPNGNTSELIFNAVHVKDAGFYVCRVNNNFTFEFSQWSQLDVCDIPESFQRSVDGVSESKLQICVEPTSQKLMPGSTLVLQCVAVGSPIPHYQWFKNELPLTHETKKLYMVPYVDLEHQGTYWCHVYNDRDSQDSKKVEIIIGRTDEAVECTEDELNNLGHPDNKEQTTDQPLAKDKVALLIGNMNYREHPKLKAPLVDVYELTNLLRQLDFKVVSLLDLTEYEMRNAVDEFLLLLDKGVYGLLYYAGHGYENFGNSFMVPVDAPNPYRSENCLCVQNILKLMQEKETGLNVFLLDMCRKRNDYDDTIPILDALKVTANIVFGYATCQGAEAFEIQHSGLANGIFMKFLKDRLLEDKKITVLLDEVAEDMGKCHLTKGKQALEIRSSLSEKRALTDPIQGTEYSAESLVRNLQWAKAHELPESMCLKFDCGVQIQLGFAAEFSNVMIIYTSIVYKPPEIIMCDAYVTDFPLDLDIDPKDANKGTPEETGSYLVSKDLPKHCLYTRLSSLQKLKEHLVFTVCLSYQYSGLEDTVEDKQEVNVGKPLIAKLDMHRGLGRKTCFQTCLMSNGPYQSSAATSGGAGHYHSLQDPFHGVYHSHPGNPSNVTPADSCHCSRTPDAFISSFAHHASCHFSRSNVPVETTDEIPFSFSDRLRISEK

| Structure (SMILES) | pIC50 [1] | pIC50 [2] | pIC50 (Human IL2 promoter) |
| --- | --- | --- | --- |
| CC(C)c1c(NC(=O)Nc2cc(Cl)c(-n3nccn3)c(Cl)c2)cnc2cc(Cl)nn12 [Example 30, 1-(2-chloro-7-isopropylpyrazolo[1,5-a]pyrimidin-6-yl)-3-(3,5-dichloro-4-(2H-1,2,3-triazol-2-yl)phenyl)urea] | 6.42 | 8.52 | 6.29 |
| CC(C)c1c(NC(=O)Nc2cc(C(F)(F)F)cn(C)c2=O)cnc2cc(Cl)nn12 [Example 32, 1-(2-chloro-7-isopropylpyrazolo[1,5-a]pyrimidin-6-yl)-3-(1-methyl-2-oxo-5-(trifluoromethyl)-1,2-dihydropyridin-3-yl)urea] | 6.67 | 7.72 | 6.66 |
| O=C(Nc1cnc(-n2nccn2)c(Cl)c1)Nc1cnc2cc(Cl)nn2c1C1CCC1 [Example 38, 1-(5-chloro-6-(2H-1,2,3-triazol-2-yl)pyridin-3-yl)-3-(2-chloro-7-cyclobutylpyrazolo[1,5-a]pyrimidin-6-yl)urea] | 6.75 | 8.30 | 6.84 |
| Cc1c(NC(=O)Nc2cnc(-n3nccn3)c(Cl)c2)cnc2cc(Cl)nn12 [Example 62, 1-(5-chloro-6-(2H-1,2,3-triazol-2-yl)pyridin-3-yl)-3-(2-chloro-7-methylpyrazolo[1,5-a]pyrimidin-6-yl)urea] | 6.46 | 7.38 | 6.58 |
| Cc1cc2ncc(NC(=O)Nc3cnc(-n4nccn4)c(Cl)c3)c(C3(C)CC3)n2n1 [Example 72, 1-(5-chloro-6-(2H-1,2,3-triazol-2-yl)pyridin-3-yl)-3-(2-methyl-7-(1-methylcyclopropyl)pyrazolo[1,5-a]pyrimidin-6-yl)urea] | 6.75 | 8.52 | 6.85 |
| COc1ncc(NC(=O)Nc2cnc3cc(C)nn3c2C2(C)CC2)cc1Cl [Example 73, 1-(5-chloro-6-methoxypyridin-3-yl)-3-(2-methyl-7-(1-methylcyclopropyl)pyrazolo[1,5-a]pyrimidin-6-yl)urea] | 6.79 | 7.92 | 7.04 |
| COCC1(c2c(NC(=O)Nc3cnc(-n4nccn4)c(Cl)c3)cnc3cc(C)nn23)CC1 [Example 78, 1-(5-chloro-6-(2H-1,2,3-triazol-2-yl)pyridin-3-yl)-3-(7-(1-(methoxymethyl)cyclopropyl)-2-methylpyrazolo[1,5-a]pyrimidin-6-yl)urea] | 6.80 | 7.68 | 7.12 |
| COCC1(c2c(NC(=O)Nc3ccnc(C(F)(F)F)c3)cnc3cc(C)nn23)CC1 [Example 79, 1-(7-(1-(methoxymethyl)cyclopropyl)-2-methylpyrazolo[1,5-a]pyrimidin-6-yl)-3-(2-(trifluoromethyl)pyridin-4-yl)urea] | 6.39 | 7.35 | 6.69 |
| COC(c1c(NC(=O)Nc2ccnc(C(F)(F)F)c2)cnc2cc(Cl)nn12)C1CCOCC1 (stereo not drawn) [Example 90, 1-(2-chloro-7-(methoxy(tetrahydro-2H-pyran-4-yl)methyl)pyrazolo[1,5-a]pyrimidin-6-yl)-3-(2-(trifluoromethyl)pyridin-4-yl)urea] | 6.16 | 7.01 | 6.03 |
| CC(C)c1c(NC(=O)Nc2cnc(-n3cc(CN)cn3)c(Cl)c2)cnc2cc(Cl)nn12 [Example 118, 1-(6-(4-(aminomethyl)-1H-pyrazol-1-yl)-5-chloropyridin-3-yl)-3-(2-chloro-7-isopropylpyrazolo[1,5-a]pyrimidin-6-yl)urea] | 6.59 | 7.55 | 6.95 |

Now those with a higher pIC50 [1], led by results:

| pIC50 [1] | pIC50 [2] | pIC50 (Human IL2 promoter) | Structure (SMILES) |
| --- | --- | --- | --- |
| 6.95 | 8.22 | 7.37 | COCCO[C@@H](C)c1c(NC(=O)Nc2cnc(OC)c(Cl)c2)cnc2cc(Cl)nn12 [Example 40, (S)-1-(5-chloro-6-methoxypyridin-3-yl)-3-(2-chloro-7-(1-(2-methoxyethoxy)ethyl)pyrazolo[1,5-a]pyrimidin-6-yl)urea] |
| 6.88 | 8.30 | 7.02 | COCC(OC)c1c(NC(=O)Nc2cnc(-n3nccn3)c(Cl)c2)cnc2cc(Cl)nn12 (stereo not drawn) [Example 56, 1-(5-chloro-6-(2H-1,2,3-triazol-2-yl)pyridin-3-yl)-3-(2-chloro-7-(1,2-dimethoxyethyl)pyrazolo[1,5-a]pyrimidin-6-yl)urea] |
| 7.10 | 8.30 | 7.85 | CO[C@@H](C)c1c(NC(=O)Nc2cnc(-n3nccn3)c(Cl)c2)cnc2cc(C)nn12 [Example 71, (S)-1-(5-chloro-6-(2H-1,2,3-triazol-2-yl)pyridin-3-yl)-3-(7-(1-methoxyethyl)-2-methylpyrazolo[1,5-a]pyrimidin-6-yl)urea] |
| 7.52 | 8.70 | 7.49 | CO[C@H](c1c(NC(=O)Nc2cnc(-n3nccn3)c(Cl)c2)cnc2cc(Cl)nn12)C(C)C [Example 74, (S)-1-(5-chloro-6-(2H-1,2,3-triazol-2-yl)pyridin-3-yl)-3-(2-chloro-7-(1-methoxy-2-methylpropyl)pyrazolo[1,5-a]pyrimidin-6-yl)urea] |
| 7.00 | 8.30 | 7.14 | CO[C@H](c1c(NC(=O)Nc2ccnc(C(F)(F)F)c2)cnc2cc(Cl)nn12)C(C)C [Example 75, (S)-1-(2-chloro-7-(1-methoxy-2-methylpropyl)pyrazolo[1,5-a]pyrimidin-6-yl)-3-(2-(trifluoromethyl)pyridin-4-yl)urea] |
| 7.08 | 8.22 | 7.55 | COCC1(c2c(NC(=O)Nc3cnc(-n4nccn4)c(Cl)c3)cnc3cc(Cl)nn23)CC1 [Example 76, 1-(5-chloro-6-(2H-1,2,3-triazol-2-yl)pyridin-3-yl)-3-(2-chloro-7-(1-(methoxymethyl)cyclopropyl)pyrazolo[1,5-a]pyrimidin-6-yl)urea] |
| 7.02 | 8.30 | 7.20 | COCC(C)(OC)c1c(NC(=O)Nc2cnc(-n3nccn3)c(Cl)c2)cnc2cc(Cl)nn12 (stereo not drawn) [Example 81, 1-(5-chloro-6-(2H-1,2,3-triazol-2-yl)pyridin-3-yl)-3-(2-chloro-7-(1,2-dimethoxypropan-2-y)pyrazolo[1,5-a]pyrimidin-6-yl)urea] |
| 6.99 | 7.85 | 7.33 | CN(C)C1(c2c(NC(=O)Nc3cnc(-n4nccn4)c(Cl)c3)cnc3cc(Cl)nn23)CC1 [Example 88, 1-(5-chloro-6-(2H-1,2,3-triazol-2-yl)pyridin-3-yl)-3-(2-chloro-7-(1-(dimethylamino)cyclopropyl)pyrazolo[1,5-a]pyrimidin-6-yl)urea] |
| 6.98 | 8.70 | 7.05 | COCC1(c2c(NC(=O)Nc3cnc(-n4nccn4)c(Cl)c3)cnc3cc(Cl)nn23)CCCO1 (stereo not drawn) [Example 91, 1-(5-chloro-6-(2H-1,2,3-triazol-2-yl)pyridin-3-yl)-3-(2-chloro-7-(2-(methoxymethyl)tetrahydrofuran-2-yl)pyrazolo[1,5-a]pyrimidin-6-yl)urea] |
| 6.92 | 8.30 | 7.24 | COC[C@H](OC)c1c(NC(=O)Nc2cnc(-n3nccn3)c(Cl)c2)cnc2cc(Cl)nn12 [Example 126, (R)-1-(5-chloro-6-(2H-1,2,3-triazol-2-yl)pyridin-3-yl)-3-(2-chloro-7-(1,2-dimethoxyethyl)pyrazolo[1,5-a]pyrimidin-6-yl)urea] |
